This assay relates to EGFRvIII CARTs. Briefly: Cytokine production of EGFRvIII CARTs stimulated by ligand-presenting MSRs (multiplex cytokine analysis). The note with it: lipid-coated MSRs, 1% PE-biotin in the lipid coating; FIG. 8. The format is cell-based. As for the experimental part:
MSRs with surface-immobilized ligands were prepared as described in Cheung, A. S., et al., Scaffolds that mimic antigen-presenting cells enable ex vivo expansion of primary T cells. Nature Biotechnology, 36(2), 160-169.
Briefly, liposomes primarily composed of POPC with 1 mol % PE-biotin were formed using a thin film rehydration method and extrusion through a 100 nm polycarbonate membrane. Hydroxyl functionalized MSRs were incubated with the liposomes to allow the formation of a supported lipid bilayer on the MSR surface (FIG. 6). To functionalize the MSRs with CD3 and CD28 agonistic antibodies, MSRs were washed several times with PBS, incubated with streptavidin, and then tethered with biotinylated CD3 and CD28 antibodies. For MSR-immobilization of EGFRvIII CAR-binding peptides, a biotinylated EGFRvIII CAR-binding peptide was used (FIG. 7). For BCMA CART stimulation, recombinant BCMAFc protein was biotinylated using biotin-NHS and similarly coupled to the MSR surface.
After incubation with the desired ligands, MSRs were washed several times with PBS and resuspended in culture medium at various concentrations and incubated with T cells. T cell proliferation was read out using CFSE labeling of the T cells and assessing dye dilution by flow cytometry. Cytokine production was assessed using a multiplex cytokine analysis method (Mesoscale […] V-Plex).
EGFRvIII CARTs produced interferon gamma and IL-2 in response to EGFRvIII CAR-binding peptide bound to the surface of the MSRs, while free EGFRvIII CAR-binding peptide in solution, a non-stimulating peptide (OVA) presented on the MSRs, or undecorated MSRs gave no response from the CARTs (FIG. 8). In another experiment, the proliferation of EGFRvIII CARTs were monitored in response to various stimuli using cell counting (FIG. 9).

Experimental findings from patent US20220152150A1, “MESOPOROUS SILICA PARTICLES COMPOSITIONS FOR VIRAL DELIVERY” (Novartis AG, priority 2019, published 2022) are described below.

With “EGFRvIII CAR-binding peptide bound to the surface of the MSRs: biotinylated EGFRvIII CAR-binding peptide (LEEKKGNYVVTDH, SEQ ID NO: 674) immobilized via streptavidin on lipid-coated MSRs”, the IL-2 production entry is listed as “produced” and the interferon gamma production entry is listed as “produced”.

For “free EGFRvIII CAR-binding peptide: EGFRvIII CAR-binding peptide (LEEKKGNYVVTDH (SEQ ID NO: 674)) free in solution”, the IL-2 production entry is listed as “no response” and the interferon gamma production result is “no response”.
